# Data as given in US20060009433A1, “Neuroprotective spirostenol pharmaceutical compositions” (priority 2003, published 2006).
# “Also recorded” adds a separate entry of the source.
# Columns and labels:
# [1] = system: NT2 cells; assay: BrdU assay, NT2 cell proliferation; assay type: cell-based, human
# [2] = system: rat PC12 neuronal cells; assay: MTT assay, Aβ1-42-induced cytotoxicity in PC12 cells (Example I); conditions: MTT; for neuroprotective effect against Aβ-induced neurotoxicity: Aβ1-42
# [3] = system: NT2 cells; assay: LDH and MTT assays, NT2 cell viability; conditions: LDH and MTT; 25-50 μM; 3-day treatment
# [4] = system: NT2 cells; assay: NT2 cell differentiation, phase-contrast morphology; assay type: cell-based, human; conditions: 25 μM; 3, 6 and 12 days (comparators 6 days)
Compound,NT2 cell proliferation at 25 μM ([1]; 25 μM),NT2 cell proliferation at 50 μM [1],"PC12 cell viability, steroid alone at 100 μM ([2]; 100 μM steroid)",neuroprotective effect against Aβ-induced neurotoxicity [2],cytotoxicity at high concentrations [3],effect on NT2 cell morphology (differentiation) [4],"PC12 cell viability, steroid alone ([2]; absence of Aβ)"
"CC(C)CC[C@H](O)[C@@H](C)[C@H]1CC[C@H]2[C@@H]3CC=C4C[C@@H](O)CC[C@]4(C)[C@H]3CC[C@]12C [22S-hydroxycholesterol, 5-cholesten-3β, 22S-diol]",significantly inhibited,significantly inhibited,neurotoxic,failed to protect; also recorded: inactive,cytotoxic,could not be replicated,–
"CC(=O)[C@H]1CC[C@H]2[C@@H]3CC=C4C[C@@H](O)CC[C@]4(C)[C@H]3CC[C@]12C [pregnenolone, 5-pregnen-3β-ol-20-one]",–,significantly inhibited,–,could not be replicated,cytotoxic,–,toxic to the cells
